These results are taken from patent US6482413B1, “Vitamin B12 —biodegradable micro particulate conjugate carrier systems for peroral delivery of drugs, therapeutic peptides/proteins and vaccines” (Council of Scientific and Industrial Research, priority 2001, dated 2002).

For one data set, the system named is VB12 transport system. The conditions noted are these: oral uptake capacity; cited from earlier work.
For another data set, the target named is IF (Homo sapiens, UniProt P27352). The settings on record: among b, d and e monocarboxylate isomers; cited from earlier work.
IF, sequence (P27352 19-417): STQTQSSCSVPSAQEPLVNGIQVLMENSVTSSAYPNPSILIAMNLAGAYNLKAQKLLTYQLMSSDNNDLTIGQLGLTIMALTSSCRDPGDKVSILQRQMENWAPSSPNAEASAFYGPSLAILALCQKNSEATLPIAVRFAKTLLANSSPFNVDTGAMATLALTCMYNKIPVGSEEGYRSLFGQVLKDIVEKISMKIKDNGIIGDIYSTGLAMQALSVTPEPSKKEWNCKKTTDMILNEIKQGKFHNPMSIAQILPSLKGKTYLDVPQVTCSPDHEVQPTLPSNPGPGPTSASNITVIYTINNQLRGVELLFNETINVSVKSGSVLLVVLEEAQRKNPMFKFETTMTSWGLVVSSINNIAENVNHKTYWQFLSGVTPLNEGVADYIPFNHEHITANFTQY
The subject of the next data set is intestinal enzymes. The conditions noted are these: FIG. 3; same experimental conditions for free and entrapped insulin.
Data set [1] concerns Streptozotocin induced diabetic rats. Kind of data set: Antidiabetic activity of orally administered insulin loaded delivery systems. In kind it is in vivo, rat. The protocol: The pharmacological availability was assessed by the above results.
Various insulin loaded drug delivery systems prepared were tested for antidiabetic activity in Streptozotocin induced diabetic rats and the results are briefed in summary section. These insulin drug delivery systems are orally administered to diabetic rats (n=number of animals). At various time intervals after feeding the rats were bled and their blood glucose levels determined.

For Vitamin B12 [VB12], in the data set with VB12 transport system, the “uptake of VB12” value is recorded as 1 nmol/dose.
“‘e’ monocarboxylate of VB12 [Conjugate 1b]”: the “affinity for IF” value at IF was “highest affinity”.
On to insulin, for which, in the data set on intestinal enzymes, the “Degradation of insulin by digestive enzymes” value is recorded as “completely degraded”. Moreover, the “activity at 3rd, 4th, 5th and 6th hours” value in data set [1] is recorded as “no activity”.
